# Several values for one entry are separate records, joined by “and”; a condition that tells them apart may be missing. Equal values may be shown once.
# T1: hTLR9 (Homo sapiens, UniProt Q9NR96)
# T1 construct: expressed in transfected cells; host or cells: HEK293 (293/hTLR9)
# T1 sequence (Q9NR96 26-1032): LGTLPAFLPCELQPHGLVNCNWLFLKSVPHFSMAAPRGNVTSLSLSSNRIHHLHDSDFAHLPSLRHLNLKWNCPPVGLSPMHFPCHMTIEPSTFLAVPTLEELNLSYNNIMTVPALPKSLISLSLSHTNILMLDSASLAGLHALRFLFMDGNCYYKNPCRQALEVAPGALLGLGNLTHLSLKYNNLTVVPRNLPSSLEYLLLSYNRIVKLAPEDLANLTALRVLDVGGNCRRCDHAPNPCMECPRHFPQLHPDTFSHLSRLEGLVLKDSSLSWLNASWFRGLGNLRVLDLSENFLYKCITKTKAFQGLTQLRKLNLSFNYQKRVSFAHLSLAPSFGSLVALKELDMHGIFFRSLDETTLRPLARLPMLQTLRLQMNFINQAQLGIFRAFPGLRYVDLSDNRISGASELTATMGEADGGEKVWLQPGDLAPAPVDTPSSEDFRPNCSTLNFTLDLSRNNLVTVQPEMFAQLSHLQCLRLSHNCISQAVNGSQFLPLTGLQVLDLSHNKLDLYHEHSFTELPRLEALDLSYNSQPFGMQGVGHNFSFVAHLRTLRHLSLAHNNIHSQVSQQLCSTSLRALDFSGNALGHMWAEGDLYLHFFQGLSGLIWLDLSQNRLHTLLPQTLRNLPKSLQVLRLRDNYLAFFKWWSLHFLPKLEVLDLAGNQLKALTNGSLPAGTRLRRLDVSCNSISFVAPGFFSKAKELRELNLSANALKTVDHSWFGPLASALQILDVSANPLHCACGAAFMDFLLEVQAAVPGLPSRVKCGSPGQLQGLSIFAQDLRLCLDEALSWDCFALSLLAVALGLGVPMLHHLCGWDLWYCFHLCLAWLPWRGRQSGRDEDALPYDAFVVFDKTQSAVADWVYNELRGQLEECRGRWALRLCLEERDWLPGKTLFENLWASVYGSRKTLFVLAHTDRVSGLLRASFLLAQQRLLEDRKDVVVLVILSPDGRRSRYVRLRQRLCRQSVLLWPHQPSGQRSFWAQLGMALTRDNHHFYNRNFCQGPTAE
# T2: hTLR7 (Homo sapiens, UniProt Q9NYK1)
# T2 construct: expressed in transfected cells; host or cells: HEK293 (293/hTLR7)
# T2 sequence (Q9NYK1 27-1049): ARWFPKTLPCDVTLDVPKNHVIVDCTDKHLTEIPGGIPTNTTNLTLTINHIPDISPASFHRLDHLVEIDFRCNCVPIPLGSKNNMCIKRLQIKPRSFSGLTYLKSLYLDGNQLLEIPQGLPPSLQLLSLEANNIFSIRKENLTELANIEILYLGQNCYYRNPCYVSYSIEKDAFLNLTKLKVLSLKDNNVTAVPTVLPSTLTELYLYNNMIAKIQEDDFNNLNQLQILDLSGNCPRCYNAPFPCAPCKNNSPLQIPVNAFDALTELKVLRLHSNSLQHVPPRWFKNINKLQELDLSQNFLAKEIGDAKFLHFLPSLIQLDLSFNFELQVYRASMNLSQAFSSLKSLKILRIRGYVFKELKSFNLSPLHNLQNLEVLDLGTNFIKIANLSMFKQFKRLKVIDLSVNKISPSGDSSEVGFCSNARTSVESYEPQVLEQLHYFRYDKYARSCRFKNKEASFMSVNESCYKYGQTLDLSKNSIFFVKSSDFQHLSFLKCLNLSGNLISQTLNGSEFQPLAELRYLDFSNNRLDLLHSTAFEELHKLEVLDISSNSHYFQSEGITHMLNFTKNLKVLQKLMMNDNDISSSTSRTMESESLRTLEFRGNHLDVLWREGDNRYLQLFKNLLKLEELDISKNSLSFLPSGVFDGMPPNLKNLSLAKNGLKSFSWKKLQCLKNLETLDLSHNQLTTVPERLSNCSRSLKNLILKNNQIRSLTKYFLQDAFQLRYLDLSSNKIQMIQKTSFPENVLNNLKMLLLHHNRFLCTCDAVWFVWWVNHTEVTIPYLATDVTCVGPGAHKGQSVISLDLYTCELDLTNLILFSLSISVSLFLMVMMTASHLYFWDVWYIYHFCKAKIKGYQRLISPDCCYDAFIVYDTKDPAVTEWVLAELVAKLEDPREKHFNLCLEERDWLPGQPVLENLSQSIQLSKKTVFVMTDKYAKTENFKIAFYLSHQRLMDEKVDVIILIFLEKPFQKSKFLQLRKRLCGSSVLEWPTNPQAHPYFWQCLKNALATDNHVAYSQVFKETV
# T3: hTLR8 (Homo sapiens, UniProt Q9NR97)
# T3 construct: expressed in transfected cells; host or cells: HEK293 (293/hTLR8)
# T3 sequence (Q9NR97 27-1041): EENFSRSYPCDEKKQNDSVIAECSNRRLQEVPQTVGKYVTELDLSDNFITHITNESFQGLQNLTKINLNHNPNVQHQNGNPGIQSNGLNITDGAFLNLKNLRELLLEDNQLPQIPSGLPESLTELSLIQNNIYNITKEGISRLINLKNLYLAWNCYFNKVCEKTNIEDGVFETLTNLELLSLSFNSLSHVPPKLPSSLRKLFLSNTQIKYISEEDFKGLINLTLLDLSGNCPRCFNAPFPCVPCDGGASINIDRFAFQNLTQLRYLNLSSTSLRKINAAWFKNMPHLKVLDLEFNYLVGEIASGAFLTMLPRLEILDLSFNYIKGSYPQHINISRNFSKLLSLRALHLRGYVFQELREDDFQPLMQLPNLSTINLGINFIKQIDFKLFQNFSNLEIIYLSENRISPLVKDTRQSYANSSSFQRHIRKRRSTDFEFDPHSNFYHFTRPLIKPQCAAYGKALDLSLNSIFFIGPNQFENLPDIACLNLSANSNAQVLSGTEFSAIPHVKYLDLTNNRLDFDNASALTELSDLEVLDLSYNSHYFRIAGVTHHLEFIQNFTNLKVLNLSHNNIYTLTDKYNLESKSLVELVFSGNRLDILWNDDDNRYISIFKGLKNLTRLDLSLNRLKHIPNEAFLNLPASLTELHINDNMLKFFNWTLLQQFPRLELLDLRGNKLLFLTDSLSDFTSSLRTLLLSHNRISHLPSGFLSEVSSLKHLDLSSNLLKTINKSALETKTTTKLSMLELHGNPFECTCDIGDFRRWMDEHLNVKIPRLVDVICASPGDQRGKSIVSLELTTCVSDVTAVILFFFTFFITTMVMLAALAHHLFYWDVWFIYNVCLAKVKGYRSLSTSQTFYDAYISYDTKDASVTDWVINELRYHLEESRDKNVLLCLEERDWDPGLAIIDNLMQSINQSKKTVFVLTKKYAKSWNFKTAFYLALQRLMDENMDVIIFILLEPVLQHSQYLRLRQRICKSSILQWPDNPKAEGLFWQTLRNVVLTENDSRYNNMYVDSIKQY
# T4: hTLR3 (Homo sapiens, UniProt O15455)
# T4 construct: expressed in transfected cells; host or cells: HEK293 (293/hTLR3)
# T4 sequence (O15455 24-904): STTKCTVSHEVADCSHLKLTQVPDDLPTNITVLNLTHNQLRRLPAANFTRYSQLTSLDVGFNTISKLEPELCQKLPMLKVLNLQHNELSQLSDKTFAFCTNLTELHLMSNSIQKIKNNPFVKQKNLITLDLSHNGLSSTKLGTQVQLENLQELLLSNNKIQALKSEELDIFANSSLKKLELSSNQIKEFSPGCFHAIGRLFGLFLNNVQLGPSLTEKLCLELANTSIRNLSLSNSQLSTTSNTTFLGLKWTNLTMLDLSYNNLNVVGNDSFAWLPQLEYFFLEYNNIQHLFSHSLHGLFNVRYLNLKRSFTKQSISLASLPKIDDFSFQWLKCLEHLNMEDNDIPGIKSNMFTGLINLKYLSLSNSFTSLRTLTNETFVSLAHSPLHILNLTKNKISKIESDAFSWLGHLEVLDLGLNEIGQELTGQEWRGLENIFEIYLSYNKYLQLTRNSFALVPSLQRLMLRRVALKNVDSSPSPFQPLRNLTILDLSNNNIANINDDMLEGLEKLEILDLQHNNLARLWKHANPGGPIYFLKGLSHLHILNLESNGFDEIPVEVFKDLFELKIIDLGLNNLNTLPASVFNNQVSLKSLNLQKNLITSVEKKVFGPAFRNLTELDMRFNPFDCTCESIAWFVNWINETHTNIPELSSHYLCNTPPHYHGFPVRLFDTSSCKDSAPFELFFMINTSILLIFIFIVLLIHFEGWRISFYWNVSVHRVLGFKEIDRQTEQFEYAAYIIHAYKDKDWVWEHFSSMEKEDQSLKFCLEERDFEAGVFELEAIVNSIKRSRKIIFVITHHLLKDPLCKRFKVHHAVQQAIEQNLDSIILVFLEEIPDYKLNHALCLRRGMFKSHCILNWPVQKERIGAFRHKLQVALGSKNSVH
# B1: S. typhimurium flagellin: TLR5 control ligand (protein, UniProt P06179 2-495, looked up)
# Flagellin: AQVINTNSLSLLTQNNLNKSQSALGTAIERLSSGLRINSAKDDAAGQAIANRFTANIKGLTQASRNANDGISIAQTTEGALNEINNNLQRVRELAVQSANSTNSQSDLDSIQAEITQRLNEIDRVSGQTQFNGVKVLAQDNTLTIQVGANDGETIDIDLKQINSQTLGLDTLNVQQKYKVSDTAATVTGYADTTIALDNSTFKASATGLGGTDQKIDGDLKFDDTTGKYYAKVTVTGGTGKDGYYEVSVDKTNGEVTLAGGATSPLTGGLPATATEDVKNVQVANADLTEAKAALTAAGVTGTASVVKMSYTDNNGKTIDGGLAVKVGDDYYSATQNKDGSISINTTKYTADDGTSKTALNKLGGADGKTEVVSIGGKTYAASKAEGHNFKAQPDLAEAAATTTENPLQKIDAALAQVDTLRSDLGAVQNRFNSAITNLGNTVNNLTSARSRIEDSDYATEVSNMSRAQILQQAGTSVLAQANQVPQNVLSLLR
# Assays:
# metastatic melanoma = conditions: high doses of interferon-alpha alone; cited from earlier work
# hTLR9 = target: T1, hTLR9; assay: Toll-like receptor binding/stimulation, HEK293 cells expressing hTLR9; format: cell-based; conditions: CpG ODN 2006 1 μg/mL
# Procedure: (§1) Samples in three concentrations (0.5 μg/mL, 5 μg/mL, and 50 μg/mL) of the biological response modifier (proteic aggregate of ammonium and magnesium phospholinoleate-palmitoleate anhydride) were dissolved in dimethylsulfoxide (DMSO at 1%) at the concentration of 1% and incubated with 293 TLR cells (HEK293 cells) in microplates, in duplicate, for 20 hours.
# (§2) Standard compounds, that is, ligands known for TLR 3 to TLR9 in predetermined concentrations were also incubated in microplates with 293 TLR cells (HEK293 cells) for 20 hours.
# (§3) Subsequently, absorbance readings were taken of the microplates […] at 650 nm using a Beckman Coulter AD 340C Absorbance Detector device with three concentrations of the biological response modifier (proteic aggregate of ammonium and magnesium phospholinoleate-palmitoleate anhydride) incubated with the HEK293 cells and readings were also taken of the microplates incubated with the same cells and the control substances, for comparative assessment of the percentage of binding of the aforementioned compounds to toll-like receptors expressed in HEK293 cells.
# hTLR7 = target: T2, hTLR7; assay: Toll-like receptor binding/stimulation, HEK293 cells expressing hTLR7; format: cell-based; conditions: CL097 1 μg/mL
# Procedure: as §1, §2, §3
# hTLR8 = target: T3, hTLR8; assay: Toll-like receptor binding/stimulation, HEK293 cells expressing hTLR8; format: cell-based; conditions: CL075 1 μg/mL
# Procedure: as §1, §2, §3
# hTLR3 = target: T4, hTLR3; assay: Toll-like receptor binding/stimulation, HEK293 cells expressing hTLR3; format: cell-based; conditions: Poly (I: C) 1 μg/mL
# Procedure: as §1, §2, §3
# NF-κB Control cells = assay: Toll-like receptor screening, NF-κB control cells; format: cell-based; conditions: TNFα 100 ng/ml
# Procedure: as §1, §2, §3
# hTLR5 = hTLR5 (Homo sapiens, UniProt O60602); assay: Toll-like receptor binding/stimulation, HEK293 cells expressing hTLR5; format: cell-based; conditions: S. typhimurium flagellin 100 ng/ml
# hTLR5, sequence (O60602 21-858): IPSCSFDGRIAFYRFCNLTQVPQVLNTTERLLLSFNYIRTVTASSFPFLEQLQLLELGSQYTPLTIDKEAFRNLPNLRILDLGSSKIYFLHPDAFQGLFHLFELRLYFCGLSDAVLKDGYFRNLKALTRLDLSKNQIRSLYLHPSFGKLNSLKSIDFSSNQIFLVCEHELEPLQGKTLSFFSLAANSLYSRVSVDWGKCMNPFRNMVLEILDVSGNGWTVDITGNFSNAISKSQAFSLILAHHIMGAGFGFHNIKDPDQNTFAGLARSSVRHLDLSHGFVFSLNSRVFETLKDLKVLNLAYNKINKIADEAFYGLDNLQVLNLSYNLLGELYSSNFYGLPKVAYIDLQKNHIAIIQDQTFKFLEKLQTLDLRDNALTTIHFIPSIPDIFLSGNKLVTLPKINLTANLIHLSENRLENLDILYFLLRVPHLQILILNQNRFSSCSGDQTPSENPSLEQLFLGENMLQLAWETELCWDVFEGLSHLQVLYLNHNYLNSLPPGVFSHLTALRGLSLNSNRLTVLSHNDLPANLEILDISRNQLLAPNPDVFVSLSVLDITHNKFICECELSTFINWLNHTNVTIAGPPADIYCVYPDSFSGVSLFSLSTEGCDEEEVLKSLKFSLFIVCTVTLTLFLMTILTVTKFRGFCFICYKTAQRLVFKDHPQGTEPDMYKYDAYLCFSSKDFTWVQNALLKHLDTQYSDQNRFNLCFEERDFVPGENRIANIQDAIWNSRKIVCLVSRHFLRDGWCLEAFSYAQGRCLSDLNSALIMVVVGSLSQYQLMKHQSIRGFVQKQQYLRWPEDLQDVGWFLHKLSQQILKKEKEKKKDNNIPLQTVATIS
# Procedure: Subsequently, absorbance readings were taken of the microplates by fluorescence at 650 nm using a Beckman Coulter AD 340C Absorbance Detector device with three concentrations of the biological response modifier (proteic aggregate of ammonium and magnesium phospholinoleate-palmitoleate anhydride) incubated with the HEK293 cells and readings were also taken of the microplates incubated with the same cells and the control substances, for comparative assessment of the percentage of binding of the aforementioned compounds to toll-like receptors expressed in HEK293 cells.
molecule,measurement,setting,value
interferon-alpha,response rate,metastatic melanoma,around 20%
CpG ODN 2006,"OD (650 nm), 293/hTLR9 cells, Controls+","hTLR9; 20 h, screening 1 and 2",2.582 OD (650 nm) and 2.519 OD (650 nm)
same,"% ligands (% bindings), 293/hTLR9, Controls",hTLR9; reference,100%
CCOCc1nc2c([nH]1)c(N)nc1ccccc12 [CL097],"OD (650 nm), 293/hTLR7 cells, Controls+","hTLR7; 20 h, screening 1 and 2",3.222 OD (650 nm) and 3.359 OD (650 nm)
same,"% ligands (% bindings), 293/hTLR7, Controls",hTLR7; reference,100%
CCCc1nc2c(N)nc3ccccc3c2s1 [CL075],"OD (650 nm), 293/hTLR8 cells, Controls+","hTLR8; 20 h, screening 1 and 2",3.313 OD (650 nm) and 3.338 OD (650 nm)
same,"% ligands (% bindings), 293/hTLR8, Controls",hTLR8; reference,100%
Poly (I: C),"OD (650 nm), 293/hTLR3 cells, Controls+","hTLR3; 20 h, screening 1 and 2",3.287 OD (650 nm) and 3.440 OD (650 nm)
same,"% ligands (% bindings), 293/hTLR3, Controls",hTLR3; reference,100%
TNFα,"OD (650 nm), Cells NF-κB Controls, Controls+","NF-κB Control cells; 20 h, screening 1 and 2",2.221 OD (650 nm) and 2.042 OD (650 nm)
same,"% ligands (% bindings), Cell NF-κB Controls, Controls",NF-κB Control cells; reference,100%
B1,"OD (650 nm), 293/hTLR5 cells, Controls+","hTLR5; 20 h, screening 1 and 2",3.662 OD (650 nm) and 3.798 OD (650 nm)
same,"% ligands (% bindings), 293/hTLR5, Controls",hTLR5; reference,100%

# — patent US9295682B2, “Adjuvant immunotherapy for the preventive, curative or palliative treatment of chronic systemic diseases such as cancer, of clinical manifestations associated with diseases like cachexia and correction of adverse effects of drugs such as immunosuppression, neutropenia and lymphopenia, comprising …” (priority 2009, dated 2016)
